This is an account of results in patent US20120010178A1, “METHODS AND COMPOUNDS FOR TREATMENT OF NEURODEGENERATIVE DISORDERS” (PRESIDENT AND FELLOWS OF HARVARD COLLEGE, priority 2008, published 2012).

Entries after “also recorded” stand apart in the source; their conditions may differ.

The test system of test [1] is SMN. In words: SMN immunofluorescence quantification (cytoplasm, nucleus, GEMs) in fibroblasts from SMA patients. To be noted: for levels of cytoplasmic and nuclear SMN (in words): substance alone. It is filed as cell-based, human. The method, boiled down: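 SMN immunostained and imaged by automated confocal microscopy; per-cell cytoplasmic and nuclear SMN intensity and GEM number and intensity quantified. PFA fixation used for screening.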

Test [2] relates to SMN. Briefly: SMN levels in mouse (ES-cell derived) motor neurons. It is filed as cell-based. The settings on record: for SMN levels in motor neurons (in words): mouse motor neurons. On the procedure: Mouse HB9-GFP derived SMN deficient motor neuron cells were incubated for 2 days with compounds from libraries and collections.
Motor neurons were produced from mouse ES-cells expressing cherry fluorescent protein (CFP) under the control of the motor neuron-selective Hb9 promoter, as previously described (Wichterle et al., 2002).
GFP expressing motor neurons were derived from mouse ES cells as described below. After growing for approximately 1 week, motor neurons were treated with allsterpaullone. Two days after treatment with allsterpaullone, cells were fixed and stained with SMN antibody or GFP antibody.
mES cells were differentiated into motor neurons according to methods adapted from Wichterle et. al., Cell (2002), 110:385-397. Briefly, mES cells were grown to 70-80% confluence in 10-cm plates (Falcon) in ES cell medium. To form embryoid bodies, cells were washed once with PBS to eliminate mES medium and then incubated with 1 ml of 0.25% trypsin (GIBCO) for 5-10 min at 21-25° C. (RT). Cells were then resuspended in 10 ml of DM1 medium (DMEM-F12, GIBCO), 10% knockout serum (GIBCO), penicillin, streptomycin, glutamine (GIBCO) and 2-mercaptoethanol (GIBCO), counted and plated at a concentration of 200,000 cells per ml in Petri dishes (Falcon). Two days later, embryoid bodies were collected and resuspended into new Petri dishes containing DM1 medium supplemented with RAc (100 nM; stock 1 mM in DMSO, Sigma) and HhAg (100 nM). […] treatment was repeated with the same concentration of RAc (100 nM) and high concentration of HhAg (1 μM). On day 6, the embryoid bodies were collected in a 15-ml Falcon tube, and incubated in Earle's balanced salt solution with 20 units of Papain and 1,000 units of DNase I (Worthington Biochemical) for 10 min at 37° C. The mixture was then triturated with a 10-ml pipette and centrifugated for 5 min at 800 rpm. The resulting cell pellet was washed with PBS and resuspended in F12 medium (F12 medium, GIBCO) with 2% fetal bovine serum (GIBCO), B-27 supplement (GIBCO), (GDNF and BDNF, 20 ng ml^−1, R&D Systems). The cells were counted and plated on poly-ornithine coated 96-well plates (VWR).

Test [3] has as its target T1, GSK3b (Ser-9 phosphorylation) (Homo sapiens, UniProt P49841).
T1 construct: endogenous in cells; host or cells: SMA patient fibroblasts (GM09677), starved in 0.5% FBS before treatment
In words: p-GSK(Ser9) phosphorylation in patient fibroblasts (western blot / immunofluorescence). To be noted: patient fibroblasts. It is filed as cell-based. On the procedure: Compounds were stored at appropriate temperature and dissolved accordingly to the manufacturers (Tocris, Enzo, EMD and Sigma-Aldrich) in DMSO (Sigma-Aldrich), unless stated otherwise (Monensin Na in EtOH, DMPQ in water). Growth factors and PDGF neutralizing antibodies (R&D Systems) were reconstituted with buffers recommended by the supplier. For generation of the dose curves, 1×10^3 fibroblasts were plated on to 96-well Greiner Senso plates (VWR) and treated with compounds on the second day then fixed and stained at the indicated time points. For GSK inhibitors and performing p-GSK3b(Ser9) detection, two days after plating growth media containing 5% FBS was replaced to the media with FBS reduced down to 0.5%, to starve cells for 72 hours. Addition of the GSK inhibitors was done in 5% FBS enriched media. As previously described, starvation increases levels of constitutively activate GSK3b kinase, allowing to achieve a more dramatic inhibitory effect when GSK inhibitors are added together with growth factors that are also known to inhibit GSK by Ser-9 phosphorylation. […] For all compounds and growth factors control wells received solvent in amount equivalent to the highest concentration of the compound in a dose curve. For PDGF inhibitory studies, cells were pre-treated with kinase inhibitors for 2 hours and PDGF was added with a fresh kinase inhibitor solution and incubated for an additional 3 days.
A general note: Immunoblotting shows a protein as a band on a membrane.

T1 sequence (P49841 whole entry): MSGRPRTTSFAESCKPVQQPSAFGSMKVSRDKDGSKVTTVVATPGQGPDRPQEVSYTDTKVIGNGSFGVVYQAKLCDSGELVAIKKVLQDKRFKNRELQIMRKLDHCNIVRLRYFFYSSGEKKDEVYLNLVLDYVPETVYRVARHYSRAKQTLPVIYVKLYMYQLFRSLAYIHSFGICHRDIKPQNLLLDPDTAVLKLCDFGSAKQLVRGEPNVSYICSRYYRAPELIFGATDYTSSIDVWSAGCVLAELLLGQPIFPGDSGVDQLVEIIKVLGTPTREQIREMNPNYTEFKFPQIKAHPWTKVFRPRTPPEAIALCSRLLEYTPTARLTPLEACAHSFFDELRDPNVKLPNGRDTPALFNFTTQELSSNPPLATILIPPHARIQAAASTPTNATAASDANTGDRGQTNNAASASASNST

Regarding PDGF, in the test on SMN [1] (SMA patient fibroblasts), the “fold increase in cytoplasmic SMN” value worked out at 2.3 fold; the “fold increase in nuclear SMN” value was 1.95 fold; the “levels of cytoplasmic and nuclear SMN (in words)” value is on record as “increase in SMN levels”. Further, the “levels of cytoplasmic and nuclear SMN (in words)” value in the test on SMN [1] (SMA patient fibroblasts, listed as platelet derived PDGF) is reported as “strongest activator”. The “Avg. SMN fold increase” value in the test on SMN [1] (human PDGF isoforms, SMA patient fibroblasts) is reported as 2-2.3 fold. Moreover, in the test on SMN [2], the “SMN levels in motor neurons (in words)” value is given as “no effect on elevating SMN”. Besides, the “p-GSK-Ser9 phosphorylation (in words)” value in test [3] is listed as “phosphorylates GSK313 in a dose-dependent manner”.

For `O=C1Cc2c([nH]c3ccc([N+](=O)[O-])cc23)-c2ccccc2N1` [Alsterpaullone], the “levels of cytoplasmic and nuclear SMN (in words)” value in the test on SMN [1] (SMA patient fibroblasts) was “increase SMN levels; also recorded: Most active compounds”; with SMN [1] (SMA patient fibroblasts, listed as alsterpaullone), “able to elevate SMN in patient fibroblasts”. For the same compound, the “effect on SMN level” value was “weak effect” in the test on SMN [1] (fed cells (10% serum, not starved)); 1.9 fold with SMN [1] (pre-starved cells that received fresh media with 10% serum along with compound); 1.6 fold in the test with SMN [1] (pre/post-starved cells (0.5% serum)). The “Gem intensity in neurons (in words)” value with SMN [2] (ES-cell derived neurons) is listed as “increases Gem intensity in neurons; also recorded: main increase was observed in Gem Intensity parameter”. The “SMN levels in motor neurons (in words)” value with SMN [2] was “increases level of SMN in neurons; also recorded: able to elevate Smn”; in the test with SMN [2] (listed as allsterpaullone) it was “Increased SMN levels”. Besides, the “p-GSK-Ser9 phosphorylation (in words)” value in test [3] is on record as “increase in a dose dependent manner”.
